According to patent US11207277B2, “Methods of treating diseases associated with high-fat diet and vitamin a deficiency using retinoic acid receptor agonists” (Cornell University, priority 2013, dated 2021):
“Also recorded” adds a separate entry of the source.

How the values were obtained:
RARβ2 = assay: Semi-quantitative PCR of pancreatic tissue, HF-fed mice; assay type: in vivo; conditions: HF diet mice + AC261066 vs HF-vehicle
Text: (§1) WT male C57/BL6 male mice were maintained on either a standard laboratory chow-fed diet (CFD) with 13% kcal fat, (diet #5053, Lab Diet, Inc, St. Louis, Mo.) or a high fat, western style diet (HFD) with 60% kcals from fat, (diet #58126, Lab Diet, Inc., St. Louis, Mo.) for 4 months. One month after the start of the high fat diet treatment, the high fat diet group was further split into 2 groups for 3 months: i) high fat diet and the drinking water containing 1% DMSO; ii) high fat diet and the drinking water containing 1.5 mg/100 ml AC261066, a specific RARβ agonist. Then mice were sacrificed by cervical dislocation. Blood and various tissue samples were harvested.
(§2) Total RNA was extracted from mouse tissues using TRIzol reagent (Life technologies) and (1 μg) was used to synthesize cDNA. cDNA synthesis was performed at 42° C. for 1 h in a final volume of 20 μl using qScript (Quanta, MD). Semi-quantitative PCR were performed Taq DNA polymerase (Invitrogen, CA). Three step PCR was run as follows: 94° C. for 30 s, 58-64° C. for 45 s for primer annealing and 72° C. for 1 min for primer extension. The number of cycles for each primer pair for amplification in the linear range was determined experimentally. PCR products were resolved on 2% agarose gels and visualized by staining with ehtidium bromide. Primers for gene expression used were as follows: […]

alpha-SMA = assay: Semi-quantitative PCR liver, alpha-SMA; assay type: in vivo; conditions: HF diet mice + AC261066 or CD1530; vs HF-vehicle
Text: as §1
as §2, with “resolved” for “resolved on”

[1] = Serum triglyceride level measurement; assay type: in vivo, mice; conditions: HF+AC261066 feeding vs CF controls
Text: as §1
The analysis of serum triglyceride levels was carried out using a bichromatic assay at the Laboratory of Comparative Pathology of the Memorial Sloan-Kettering Cancer Center. Chow-fed diet (CFD) n=2; high fat diet (HFD) n=3; high fat diet+AC261066 (HFDAC) n=5.

renal lipids = assay: Oil red O staining of kidney sections; assay type: in vivo; conditions: HF diet mice + AC261066 vs HF vehicle
α-SMA = α-SMA immunofluorescence of kidney sections; assay type: in vivo; conditions: HF diet mice + AC261066
Text: as §1
Fresh mouse kidney samples were embedded in optimal cutting temperature (OCT) medium and immediately frozen to −70 centigrade. Cryosections were then fixed in 4% formaldehyde for 1 hr at room temp. Slides were then rinsed three times in deionized water (dH2O) for 30 s, followed by treatment with 0.5% Triton X-100 in PBS for 5 min. Sections were then washed three times with PBS for 5 min. Samples were with incubated 2% bovine serum albumin (BSA) for 30 min at room temperature to block for unspecific antibody binding. Following blocking, sections were washed three times in PBS and incubated with mouse monoclonal antibody against α-SMA (1:500) (Dako, Inc) for 24 h at 4° C. […]

LRAT = assay: Semi-quantitative PCR kidney, LRAT; assay type: in vivo; conditions: HF diet mice + AC261066
Text: as §1
as §2, with “(Invitrogen.” for “(Invitrogen,”

4-hydroxynonenal (4-HNE) = assay: 4-HNE staining of kidney sections; assay type: in vivo, mice; conditions: HF diet + AC261066 vs HF diet group
Text: as §1
Paraffin-embedded sections (from two to four mice per group) were deparaffinized and rehydrated, and antigen retrieval was performed using an antigen unmasking solution (Vector Laboratories, H-3300). After quenching endogenous peroxidase with 3% H2O2, the tissue sections were blocked with the blocking reagent (from the M.O.M. kit from Vector Laboratories). Then, tissue sections were incubated with a 4-HNE antibody (1:400; mouse monoclonal antibody; Abcam, ab48506) overnight at 4° C. The sections were then incubated with secondary antibodies (1:200, anti-mouse IgG from the M.O.M kit). As a negative control, sections were stained without incubation with primary antibodies. […]

## CCCCOCCOc1nc(-c2ccc(C(=O)O)c(F)c2)sc1C [AC261066]
RARβ2
  RARβ (RARβ2) mRNA levels in pancreas: increased the RAR 32 mRNA levels; also recorded: increased compared to HF-vehicle treated mice
alpha-SMA
  hepatic mRNA levels of alpha-SMA: also decreased
[1]
  serum triglyceride levels: does not increase triglyceride levels; also recorded: does not affect serum triglyceride levels
Renal lipids
  kidney lipid accumulation (oil red O): comparably less oil red o positive areas
α-SMA
  α-SMA positive areas in kidney: diminished expression of the fibrogenic protein alpha-SMA; also recorded: not observed
LRAT
  LRAT mRNA levels in kidney: restores RAR beta and LRAT mRNA levels
4-hydroxynonenal (4-HNE)
  4-HNE levels (oxidative stress) in kidneys: reduces oxidative stress (ROS); also recorded: lower 4-HNE levels than those from the high fat diet group
